Measurements taken from article PMC4289911, “[^68Ga]FSC-(RGD)3 a trimeric RGD peptide for imaging αvβ3 integrin expression based on a novel siderophore derived chelating scaffold—synthesis and evaluation” (Nuclear Medicine and Biology, 2015).
Read-outs that look alike come from different tables or passages of the source.

Key:
αvβ3 integrin [1] = biological target: T1, αvβ3 integrin (Homo sapiens, UniProt P05106+P06756); experiment: Binding affinity for immobilized αvβ3 integrin, displacement of [125I]c(RGDyV); details: isolated αvβ3 integrin coated on 96-well plates, radioligand [125I]c(RGDyV), 0.001 to 100 nM peptide, three independent measurements
T1 construct: purchased Millipore-Chemicon, Temecula, CA, USA
T1 sequence (P06756 31-889 limits assumed): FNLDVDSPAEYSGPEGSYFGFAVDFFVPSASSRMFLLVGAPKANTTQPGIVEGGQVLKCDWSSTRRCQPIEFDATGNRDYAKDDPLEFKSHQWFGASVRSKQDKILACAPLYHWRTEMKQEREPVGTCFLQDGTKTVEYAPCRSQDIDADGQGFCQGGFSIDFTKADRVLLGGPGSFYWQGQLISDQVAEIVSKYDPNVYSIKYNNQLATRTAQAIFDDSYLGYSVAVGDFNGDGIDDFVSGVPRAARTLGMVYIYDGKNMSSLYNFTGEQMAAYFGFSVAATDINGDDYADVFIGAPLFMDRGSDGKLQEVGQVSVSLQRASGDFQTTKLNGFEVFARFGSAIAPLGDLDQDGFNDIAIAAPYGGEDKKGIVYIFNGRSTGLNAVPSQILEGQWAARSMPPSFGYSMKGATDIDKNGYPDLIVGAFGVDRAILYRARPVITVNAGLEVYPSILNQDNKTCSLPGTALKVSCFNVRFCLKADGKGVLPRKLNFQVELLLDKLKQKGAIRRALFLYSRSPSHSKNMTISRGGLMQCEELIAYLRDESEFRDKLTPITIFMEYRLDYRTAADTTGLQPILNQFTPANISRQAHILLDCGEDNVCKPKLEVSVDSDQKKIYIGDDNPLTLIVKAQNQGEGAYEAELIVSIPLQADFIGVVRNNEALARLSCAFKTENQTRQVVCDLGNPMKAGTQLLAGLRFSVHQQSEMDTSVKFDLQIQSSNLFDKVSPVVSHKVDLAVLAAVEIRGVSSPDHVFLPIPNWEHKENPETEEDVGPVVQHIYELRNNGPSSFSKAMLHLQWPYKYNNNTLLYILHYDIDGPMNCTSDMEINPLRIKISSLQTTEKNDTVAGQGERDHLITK
T1 sequence (P06756 891-1048 partner limits assumed): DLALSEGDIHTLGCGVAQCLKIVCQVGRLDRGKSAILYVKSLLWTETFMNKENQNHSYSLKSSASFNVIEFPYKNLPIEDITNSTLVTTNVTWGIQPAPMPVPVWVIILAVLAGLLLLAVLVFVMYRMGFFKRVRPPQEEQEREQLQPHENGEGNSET
T1 sequence (P05106 27-788): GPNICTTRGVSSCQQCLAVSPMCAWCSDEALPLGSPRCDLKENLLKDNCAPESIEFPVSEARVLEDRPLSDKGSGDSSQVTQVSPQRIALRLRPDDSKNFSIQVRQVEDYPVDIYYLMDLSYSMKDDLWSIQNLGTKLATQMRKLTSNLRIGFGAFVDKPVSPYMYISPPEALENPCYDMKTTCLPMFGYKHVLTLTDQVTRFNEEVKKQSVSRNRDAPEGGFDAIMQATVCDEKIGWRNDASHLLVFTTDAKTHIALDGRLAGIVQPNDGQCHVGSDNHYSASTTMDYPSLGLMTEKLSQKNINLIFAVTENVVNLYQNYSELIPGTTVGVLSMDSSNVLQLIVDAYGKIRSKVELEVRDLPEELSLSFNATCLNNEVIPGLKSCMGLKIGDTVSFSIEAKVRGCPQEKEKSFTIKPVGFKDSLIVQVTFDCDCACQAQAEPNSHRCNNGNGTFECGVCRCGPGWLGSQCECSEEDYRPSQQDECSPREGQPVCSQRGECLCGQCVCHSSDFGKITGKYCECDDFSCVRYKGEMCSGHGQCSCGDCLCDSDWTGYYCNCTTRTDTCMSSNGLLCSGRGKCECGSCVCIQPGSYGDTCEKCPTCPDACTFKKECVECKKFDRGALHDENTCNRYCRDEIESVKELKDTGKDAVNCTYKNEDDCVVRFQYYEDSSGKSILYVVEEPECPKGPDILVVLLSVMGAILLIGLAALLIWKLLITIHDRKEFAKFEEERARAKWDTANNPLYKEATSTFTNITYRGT
Experimental: In vitro binding affinities of FSC-(RGD)3 and cyclo(-Arg-Gly-Asp-DTyr-Val-) (c(RGDyV)) as control were determined by using isolated αvβ3 integrin (Millipore-Chemicon, Temecula, CA, USA) and ^125I labeled c(RGDyV) as radioligand. The detailed procedure can be found in [16]. Briefly, 96-well plates (Nunc, Thermo Fisher Scientific, Vienna, Austria) were coated for 16 hours at 4 °C with the αvβ3 integrin. Subsequently, the immobilized receptors were incubated with [^125I]c(RGDyV) and increasing concentrations of the corresponding peptide ranging from 0.001 to 100 nM. The unbound fraction of radioligand was washed out, and receptor bound activity was obtained treating the wells with sodium hydroxide (NaOH) solution (2 M). IC50 values were determined by fitting the percent inhibition using OriginPro 8.5 software (Northhampton, MA, USA). Three independent measurements were made.

αvβ3 integrin [2] = biological target: T1, αvβ3 integrin; details: comparison value; read-out: IC50, binding affinity for αvβ3 integrin; cited from earlier work
Excerpt: A high binding affinity to the isolated αvβ3 integrin for [^68Ga]FSC-(RGD)3 was found. […] A remarkable enhancement of internalized activity in comparison to [^68Ga]NODAGA-RGD or other monomeric RGD derivatives, [16] was observed. Moreover, ...

Row | IC50 (αvβ3 integrin [1]) [nM] | Compound | IC50 (αvβ3 integrin [2]) [nM]
1 | 1.8 ± 0.6 | C/C1=C/C(=O)N(O)CCC[C@H](NC(=O)CCC(=O)NCCCC[C@@H]2NC(=O)[C@@H](Cc3ccccc3)NC(=O)[C@H](CC(=O)O)NC(=O)CNC(=O)[C@H](CCCNC(=N)N)NC2=O)C(=O)OCC/C(C)=C\C(=O)N(O)CCC[C@H](NC(=O)CCC(=O)NCCCC[C@@H]2NC(=O)[C@@H](Cc3ccccc3)NC(=O)[C@H](CC(=O)O)NC(=O)CNC(=O)[C@H](CCCNC(=N)N)NC2=O)C(=O)OCC/C(C)=C\C(=O)N(O)CCC[C@H](NC(=O)CCC(=O)NCCCC[C@@H]2NC(=O)[C@@H](Cc3ccccc3)NC(=O)[C@H](CC(=O)O)NC(=O)CNC(=O)[C@H](CCCNC(=N)N)NC2=O)C(=O)OCC1 [FSC-(RGD)3] | 
2 | 3.2 ± 1.2 | CC(C)[C@@H]1NC(=O)[C@@H](Cc2ccc(O)cc2)NC(=O)[C@H](CC(=O)O)NC(=O)CNC(=O)[C@H](CCCNC(=N)N)NC1=O [c(RGDyV), cyclo(-Arg-Gly-Asp-DTyr-Val-)] | 
3 |  | [^68Ga]NODAGA-RGD: established monomeric 68Ga-labeled RGD peptide | 4.7
